Experimental data as given in patent publication US6068851A, “Formulation for use in the prevention of pathogen induced diseases including HIV and HSV” (Infectio Recherche, Inc., priority 1999, dated 2000).

Legend:
[1] = Drug release from poloxamer gel (diffusion cell, dialysis membrane, radiolabelled drugs); assay type: physicochemical; settings: body temperature vs 4° C.; data not shown
Excerpt: The poloxamer gel could act as a sustained-drug release system which prolong the local microbicidal activity of the incorporated active agents. We have studied the release of antiviral agents (AZT, ddC, ddi, foscarnet, acyclovir) from our poloxamer gel formulations using radiolabelled drugs and a diffusion cell made of two compartments separated by a dialysis membrane. […] This is explained by the creation of large openings in the intermicellar network of the gel at high temperature which in turn increase the release of the incorporated active agents.

[2] = tested on: human cervical cells; test: Viability of human cervical cells with nonoxynol-9, free or in poloxamer gel; assay type: cell-based
Description: FIG. 2 represents the viability of human cervical cells following incubation with different concentrations of nonoxynol-9 either as free drug or incorporated into the poloxamer gel (19.5% w/w).

[3] = tested on: cervical mucosa of rabbits; test: Histopathology of cervix after daily intravaginal application; assay type: in vivo, New Zealand rabbits; settings: once daily intravaginal for two weeks
Description: (§1) Studies have been performed to evaluate the tolerance and toxicity of the poloxamer 407 gel (19.5% w/w) when applied locally once daily for two weeks to the vaginal and cervical mucosae of New Zealand rabbits. The gel was applied in its fluid state to allow a good penetration into the irregularly shaped surfaces of the mucosae. Biopsies of the vaginal and cervical mucosae were performed on days 0, 4, 7 and 14 for histological examinations. […] Such toxicity induced by nonoxynol-9 might favour the entry of pathogens.

[4] = tested on: vaginal and cervical mucosae of rabbits; test: In vivo tolerance/toxicity, vaginal and cervical mucosae, daily intravaginal application; set-up: species or system New Zealand rabbits; settings: once daily intravaginal for two weeks; nonoxynol-9 dose 125 mg
Description: as §1

[5] = background statement; cited from earlier work

| Compound | release of drugs from the poloxamer gel [1] | further results |
| --- | --- | --- |
| Cc1cn([C@H]2C[C@H](N=[N+]=[N-])[C@@H](CO)O2)c(=O)[nH]c1=O [AZT] | increased at body temperature when compared to 4 °C |  |
| Nc1nc2c(ncn2COCCO)c(=O)[nH]1 [acyclovir] | increased at body temperature when compared to 4 °C |  |
| Nc1ccn([C@H]2CC[C@@H](CO)O2)c(=O)n1 [ddC, 2'-3'-dideoxycytidine] | increased at body temperature when compared to 4 °C |  |
| O=c1[nH]cnc2c1ncn2[C@H]1CC[C@@H](CO)O1 [ddi, 2'-3'-dideoxyinosine] | increased at body temperature when compared to 4 °C |  |
| O=C(O)P(=O)(O)O [foscarnet] | increased at body temperature when compared to 4 °C |  |
| nonoxynol-9 |  | toxicity to human cervical cells (viability) ([2]; different concentrations of nonoxynol-9, free or in gel): highly toxic to the human cervical cells in a dose-dependent manner; concentration at which toxicity starts ([2]; free nonoxynol-9, human cervical cells): 150 µg/mL; histopathology of cervical mucosa [3]: large accumulation of eosinophiles in the sub-mucosa and induce a major loss of integrity of the epithelial cells; toxicity to vaginal and cervical mucosae [4]: very toxic as evidenced by the presence of epithelial disruption, irritation, necrosis and bleeding; local inflammation and ulcerations [5]: induce local inflammation and ulcerations |
